In patent publication US20240083903A1, “ARYL ETHER COMPOUNDS AS TEAD MODULATORS” (Merck Sharp& Dohme LLC, priority 2021, published 2024):

The compounds below were run on TEAD Reporter-MCF7 cell line (assay: YAP/TEAD cellular activity assay: inhibition of TEAD-Luc activity in TEAD Reporter-MCF7 cell line). Conditions: Homo sapiens, MCF7, 24 h, TEAD Reporter-MCF7 cells, 24 hours incubation with compound, luciferase readout.
Format: cell-based, human
Description: YAP/TEAD Cellular Activity Assay
Quantitation of Compound Potency on the Inhibition of TEAD-Luc Activity in TEAD Reporter-MCF7 Cell Line.
The TEAD Reporter-MCF7 cell line containing the firefly luciferase gene under the control of TEAD responsive elements stably integrated into the human breast cancer cell line was purchased from BPS Bioscience (Cat #60618). The cells were cultured with complete culture medium ([…], 1 mM sodium pyruvate, 10% fetal bovine serum, 10 ng/mL insulin and 400 ug/mL G418 sulfate) prior to the assay. For the assay, the cells were harvested, resuspended in the complete culture medium without G418, and seeded into white solid bottom 384-well cell culture microplates in 25 uL with 10,000 cells per well. The plates were incubated at 37° C. in a CO2 incubator for 20-24 hours and the compounds were then transferred from Echo LDV plates directly into the 384-well white tissue culture plates with an Echo. The plates were incubated at 37° C. in a CO2 incubator for 24 hours and equal volume of ONE-Glo™ EX Luciferase reagent (Promega, Cat #E8150) was added. After mixing on a shaker at room temperature for 10 minutes, the luciferase activity was measured with an Envision. The percentage inhibition and EC50 values of compounds were calculated with Spotfire.
Required Materials • 1. TEAD reporter-MCF-7 Cells (BPS Bioscience, #60618) • 2. Complete Cell Culture Medium (without selection antibiotics) • EMEM 89% (ATCC, #30-2003) • FBS 10% (Hyclone, #SH30088.03) • 1% Non essential amino acids (Gibco, • 1 mM sodium pyruvate (Gibco, • Pen/Strep, 1% (Gibco, #15140-122) • 10 ng/mL insulin (Sigma, #10516) • 3. Complete Cell Culture Medium (with selection antibiotics) • EMEM 89% (ATCC, #30-2003) • F1% Non essential amino acids (Gibco, • 1 mM sodium pyruvate (Gibco, • BS 10% (Hyclone, #SH30088.03) • 10 ng/mL insulin (Sigma, #10516) • 400 ug/mL G418 sulfate (Agilent, #200049-21) • 4. Miscellaneous tissue culture equipment and reagents. • 5. White solid 384-well tissue culture plate (Greiner, Cat #781080) • 6. One Glo EX luciferase assay system (Promega, #E8150)
The following table tabulates the biological data disclosed for the current invention. The biological data was collected using the methodology described above. For each compound, TEAD-Luc EC50 values are listed in nanomolar (nM) concentration units.

EC50 [nM]	SMILES
2860	CNS(=O)(=O)c1ccc(Oc2ccc(C(F)(F)F)cc2)c(-c2ccc3ncn(C4CC4)c3c2)c1 [2-12, 3-(1-cyclopropyl-1H-benzimidazol-6-yl)-N-methyl-4-[4-(trifluoromethyl)phenoxy]benzene-1-sulfonamide]
338	CNS(=O)(=O)c1ccc(Oc2ccc(C(F)(F)F)cc2)c(-c2ccc3c(c2)C(=O)N(CC2CC2)C3)c1 [2-11, 3-[2-(cyclopropylmethyl)-3-oxo-2,3-dihydro-1H-isoindol-5-yl]-N-methyl-4-[4-(trifluoromethyl)phenoxy]benzene-1-sulfonamide]
3650	CNS(=O)(=O)c1ccc(Oc2ccc(C(F)(F)F)cc2)c(-c2cccc3nc(N)[nH]c23)c1 [2-13, 3-(2-amino-1H-benzimidazol-7-yl)-N-methyl-4-[4-(trifluoromethyl)phenoxy]benzene-1-sulfonamide]
675	CNS(=O)(=O)c1ccc(Oc2ccc(C(F)(F)F)cc2)c(-c2cnc3cccnc3c2)c1 [2-30, N-methyl-3-(1,5-naphthyridin-3-yl)-4-[4-(trifluoromethyl)phenoxy]benzene-1-sulfonamide]
207	CNS(=O)(=O)c1ccc(Oc2ccc(F)cc2)c(-c2cn3c(n2)CCC3)c1 [4-13, 3-(6,7-dihydro-5H-pyrrolo [1,2-a]imidazol-2-yl)-4-(4-fluorophenoxy)-N-methylbenzene-1-sulfonamide]
1060	CNS(=O)(=O)c1ccc(Oc2ccc(F)c(F)c2)c(-c2cnn3c2OCC3)c1 [1-48, 4-(3,4-difluorophenoxy)-3-(2,3-dihydropyrazolo[5,1-b]oxazol-7-yl)-N-methylbenzenesulfonamide]
261	CNS(=O)(=O)c1ccc(Oc2ccc(C(F)(F)F)nc2)c(-c2cn3c(n2)CCC3)c1 [4-2, 3-(6,7-dihydro-5H-pyrrolo[1,2-a]imidazol-2-yl)-N-methyl-4-((6-(trifluoromethyl)pyridin-3-yl)oxy)benzenesulfonamide]
2870	CNS(=O)(=O)c1ccc(Oc2ccc(C(F)(F)F)cc2)c(-c2[nH]nc3ccccc23)c1 [1-8, 3-(2H-indazol-3-yl)-N-methyl-4-[4-(trifluoromethyl)phenoxy]benzene-1-sulfonamide]
210	CNS(=O)(=O)c1ccc(Oc2ccc(C(F)(F)F)cc2)c(-c2ccc3scnc3c2)c1 [2-6, 3-(1,3-benzothiazol-5-yl)-N-methyl-4-[4-(trifluoromethyl)phenoxy]benzene-1-sulfonamide]
232	CNc1ncc2cc(-c3cc(S(=O)(=O)NC)ccc3Oc3ccc(C(F)(F)F)cc3)ccc2n1 [2-25, N-methyl-3-[2-(methylamino)quinazolin-6-yl]-4-[4-(trifluoromethyl)phenoxy]benzene-1-sulfonamide]
92.6	CNS(=O)(=O)c1ccc(Oc2ccc(C(F)(F)F)cc2)c(-c2ccc3c(c2)NC(=O)CO3)c1 [2-22, N-methyl-3-(3-oxo-3,4-dihydro-2H-1,4-benzoxazin-6-yl)-4-[4-(trifluoromethyl)phenoxy]benzene-1-sulfonamide]
27	CNS(=O)(=O)c1ccc(Oc2ccc(C(F)F)cc2)c(-c2cn3c(n2)CCC3)c1 [1-40, 4-[4-(difluoromethyl)phenoxy]-3-(6,7-dihydro-5H-pyrrolo[1,2-a]imidazol-2-yl)-N-methylbenzene-1-sulfonamide]
414	CNS(=O)(=O)c1ccc(Oc2ccc(C(F)(F)F)cc2)c(-c2ncn3c2CCCC3)c1 [1-37, N-methyl-3-(5,6,7,8-tetrahydroimidazo[1,5-a]pyridin-1-yl)-4-[4-(trifluoromethyl)phenoxy]benzene-1-sulfonamide]
34.1	CNS(=O)(=O)c1ccc(Oc2ccc(C(F)(F)F)cc2)c(-c2cn3ccsc3n2)c1 [1-18, 3-(imidazo[2,1-b][1,3]thiazol-6-yl)-N-methyl-4-[4-(trifluoromethyl)phenoxy]benzene-1-sulfonamide]
35.2	CCNS(=O)(=O)c1ccc(Oc2ccc(C(F)(F)F)cc2)c(-c2cn3c(n2)CCC3)c1 [7-2, 3-(6,7-dihydro-5H-pyrrolo[1,2-a]imidazol-2-yl)-N-ethyl-4-[4-(trifluoromethyl)phenoxy]benzene-1-sulfonamide]
26	CNS(=O)(=O)c1ccc(Oc2ccc(C(F)(F)F)cc2)c(-c2cnn3c2OCC3)c1 [2-1, 3-(2,3-Dihydropyrazolo[5,1-b]oxazol-7-yl)-N-methyl-4-(4-(trifluoromethyl)phenoxy)benzenesulfonamide]
1070	CNS(=O)(=O)c1ccc(Oc2ccc(C(F)(F)F)cc2)c(-c2nc3n(c2C#N)CCNC3)c1 [1-17, 3-(3-cyano-5,6,7,8-tetrahydroimidazo[1,2-a]pyrazin-2-yl)-N-methyl-4-[4-(trifluoromethyl)phenoxy]benzene-1-sulfonamide]
2180	CNS(=O)(=O)c1ccc(Oc2ccc(C(F)(F)F)cc2)c(-c2ccnc3[nH]ccc23)c1 [2-9, N-methyl-3-(1H-pyrrolo[2,3-b]pyridin-4-yl)-4-[4-(trifluoromethyl)phenoxy]benzene-1-sulfonamide]
12.8	CNS(=O)(=O)c1ccc(Oc2ccc(C(F)(F)F)cc2)c(-c2cn3c(n2)CCCC3)c1 [1-9, N-methyl-3-(5,6,7,8-tetrahydroimidazo [1,2-a]pyridin-2-yl)-4-[4-(trifluoromethyl)phenoxy]benzene-1-sulfonamide]
3090	CNS(=O)(=O)c1ccc(Oc2cccc(OC(F)(F)F)c2)c(-c2cnn3c2CCC3)c1 [3-5, 3-(5,6-dihydro-4H-pyrrolo[1,2-b]pyrazol-3-yl)-N-methyl-4-[3-(trifluoromethoxy)phenoxy]benzene-1-sulfonamide]
336	CNS(=O)(=O)c1ccc(Oc2ccc(C(F)(F)F)cc2)c(-c2ccc3c(cnn3C)c2)c1 [2-15, N-methyl-3-(1-methyl-1H-indazol-5-yl)-4-[4-(trifluoromethyl)phenoxy]benzene-1-sulfonamide]
3340	CNS(=O)(=O)c1ccc(Oc2ccc(C(F)(F)F)cc2)c(-c2cnc3ccc(Cl)nn23)c1 [1-23, 3-(6-chloroimidazo[1,2-b]pyridazin-3-yl)-N-methyl-4-[4-(trifluoromethyl)phenoxy]benzene-1-sulfonamide]
8860	CNS(=O)(=O)c1ccc(Oc2ccc(C(F)(F)F)cc2)c(-c2cncc3ccccc23)c1 [2-19, 3-(isoquinolin-4-yl)-N-methyl-4-[4-(trifluoromethyl)phenoxy]benzene-1-sulfonamide]
103	CNS(=O)(=O)c1ccc(Oc2cccc(Cl)c2)c(-c2cn3c(n2)CCC3)c1 [4-5, 4-(3-chlorophenoxy)-3-(6,7-dihydro-5H-pyrrolo[1,2-a]imidazol-2-yl)-N-methylbenzene-1-sulfonamide]
410	CNS(=O)(=O)c1ccc(Oc2ccc(C(F)(F)F)cc2)c(-c2ccc3nccnc3c2)c1 [2-27, N-methyl-3-(quinoxalin-6-yl)-4-[4-(trifluoromethyl)phenoxy]benzene-1-sulfonamide]
907	CNS(=O)(=O)c1ccc(Oc2ccc(C(F)(F)F)cc2)c(-c2cn3c(n2)C(O)CC3)c1 (stereo not drawn) [9-1, 3-(7-Hydroxy-6,7-dihydro-5H-pyrrolo[1,2-a]imidazol-2-yl)-N-methyl-4-(4-(trifluoromethyl)phenoxy)benzenesulfonamide]
7140	CNS(=O)(=O)c1ccc(Oc2ccc(C(F)(F)F)cc2)c(-c2cnc3ccccn23)c1 [1-20, 3-(imidazo[1,2-a]pyridin-3-yl)-N-methyl-4-[4-(trifluoromethyl)phenoxy]benzene-1-sulfonamide]
631	CNS(=O)(=O)c1ccc(Oc2ccc(C(F)(F)F)cc2)c(-c2cnn3c2CCCC3)c1 [2-16, N-methyl-3-(4,5,6,7-tetrahydropyrazolo[1,5-a]pyridin-3-yl)-4-[4-(trifluoromethyl)phenoxy]benzene-1-sulfonamide]

Same assay, conditions: TEAD Reporter-MCF7 cells, 24 hours incubation with compound, luciferase readout

EC50 [nM]	SMILES
26.1	CNS(=O)(=O)c1ccc(Oc2ccc(C(F)(F)F)cc2)c(-c2cn3c(n2)CC(C)C3)c1 (single isomer, unassigned) [1-41, (R)- or (S)-N-methyl-3-(6-methyl-6,7-dihydro-5H-pyrrolo [1,2-a]imidazol-2-yl)-4-[4-(trifluoromethyl)phenoxy]benzene-1-sulfonamide]
8.1	CNS(=O)(=O)c1ccc(Oc2ccc(C(F)(F)F)cc2)c(-c2cn3c(n2)C(C)CC3)c1 (single isomer, unassigned) [1-43, (R)- or (S)-N-methyl-3-(7-methyl-6,7-dihydro-5H-pyrrolo[1,2-a]imidazol-2-yl)-4-[4-(trifluoromethyl)phenoxy]benzene-1-sulfonamide]
